Assay results as given in ChEMBL document CHEMBL4138146, “A Schmidt rearrangement-mediated synthesis of novel tetrahydro-benzo[1,4]diazepin-5-ones as potential anticancer and antiprotozoal agents” (Eur J Med Chem, 2017).

How the values were obtained:
Type in all cases: functional
SF-295 = assay: Growth inhibition of human SF295 cells assessed as cell growth at 10^-8 M incubated for 48 hrs by sulforhodamine B assay relative to control; conditions: SF-295, 48 h, read-out: Activity
Malme-3M = assay: Growth inhibition of human MALME-3M cells assessed as cell growth at 10^-8 M incubated for 48 hrs by sulforhodamine B assay relative to control; conditions: read-out: Activity
SK-MEL-2 = assay: Growth inhibition of human SK-MEL-2 cells assessed as cell growth at 10^-8 M incubated for 48 hrs by sulforhodamine B assay relative to control; conditions: SK-MEL-2, 48 h, read-out: Activity
CAKI-1 [1] = assay: Growth inhibition of human Caki1 cells assessed as cell growth at 10^-8 M incubated for 48 hrs by sulforhodamine B assay relative to control; conditions: CAKI-1, 48 h, read-out: Activity
DU-145 [2] = assay: Growth inhibition of human DU145 cells assessed as cell growth at 10^-8 M incubated for 48 hrs by sulforhodamine B assay relative to control; conditions: DU-145, 48 h, read-out: Activity
MCF7 = assay: Growth inhibition of human MCF7 cells assessed as cell growth at 10^-8 M incubated for 48 hrs by sulforhodamine B assay relative to control; conditions: MCF7, 48 h, read-out: Activity
MDA-MB-468 = assay: Growth inhibition of human MDA-MB-468 cells assessed as cell growth at 10^-8 M incubated for 48 hrs by sulforhodamine B assay relative to control; conditions: MDA-MB-468, 48 h, read-out: Activity
SR [3] = assay: Growth inhibition of human SR cells assessed as cell growth at 10^-7 M incubated for 48 hrs by sulforhodamine B assay relative to control; conditions: read-out: Activity
HOP-62 [4] = assay: Growth inhibition of human HOP62 cells assessed as cell growth at 10^-7 M incubated for 48 hrs by sulforhodamine B assay relative to control; conditions: HOP-62, 48 h, read-out: Activity
KM12 = assay: Growth inhibition of human KM12 cells assessed as cell growth at 10^-7 M incubated for 48 hrs by sulforhodamine B assay relative to control; conditions: KM12, 48 h, read-out: Activity
ACHN = assay: Growth inhibition of human ACHN cells assessed as cell growth at 10^-7 M incubated for 48 hrs by sulforhodamine B assay relative to control; conditions: read-out: Activity
CAKI-1 [5] = assay: Growth inhibition of human Caki1 cells assessed as cell growth at 10^-7 M incubated for 48 hrs by sulforhodamine B assay relative to control; conditions: CAKI-1, 48 h, read-out: Activity
TK-10 = assay: Growth inhibition of human TK10 cells assessed as cell growth at 10^-7 M incubated for 48 hrs by sulforhodamine B assay relative to control; conditions: TK-10, 48 h, read-out: Activity
DU-145 [6] = assay: Growth inhibition of human DU145 cells assessed as cell growth at 10^-7 M incubated for 48 hrs by sulforhodamine B assay relative to control; conditions: DU-145, 48 h, read-out: Activity
SR [7] = assay: Growth inhibition of human SR cells assessed as cell growth at 10^-6 M incubated for 48 hrs by sulforhodamine B assay relative to control; conditions: read-out: Activity
NCI-H226 [8] = assay: Growth inhibition of human NCI-H226 cells assessed as cell growth at 10^-6 M incubated for 48 hrs by sulforhodamine B assay relative to control; conditions: NCI-H226, 48 h, read-out: Activity
NCI-H23 = assay: Growth inhibition of human NCI-H23 cells assessed as cell growth at 10^-6 M incubated for 48 hrs by sulforhodamine B assay relative to control; conditions: NCI-H23, 48 h, read-out: Activity
SNB-19 [9] = assay: Growth inhibition of human SNB19 cells assessed as cell growth at 10^-6 M incubated for 48 hrs by sulforhodamine B assay relative to control; conditions: SNB-19, 48 h, read-out: Activity
LOX IMVI = assay: Growth inhibition of human LOXIMVI cells assessed as cell growth at 10^-6 M incubated for 48 hrs by sulforhodamine B assay relative to control; conditions: read-out: Activity
SK-MEL-28 = assay: Growth inhibition of human SK-MEL-28 cells assessed as cell growth at 10^-6 M incubated for 48 hrs by sulforhodamine B assay relative to control; conditions: SK-MEL-28, 48 h, read-out: Activity
Hs-578T [10] = assay: Growth inhibition of human Hs 578T cells assessed as cell growth at 10^-6 M incubated for 48 hrs by sulforhodamine B assay relative to control; conditions: read-out: Activity
HL-60(TB) = assay: Growth inhibition of human HL-60(TB) cells assessed as cell growth at 10^-5 M incubated for 48 hrs by sulforhodamine B assay relative to control; conditions: HL-60, 48 h, read-out: Activity
MOLT-4 = assay: Growth inhibition of human MOLT4 cells assessed as cell growth at 10^-5 M incubated for 48 hrs by sulforhodamine B assay relative to control; conditions: MOLT-4, 48 h, read-out: Activity
HOP-62 [11] = assay: Growth inhibition of human HOP62 cells assessed as cell growth at 10^-5 M incubated for 48 hrs by sulforhodamine B assay relative to control; conditions: HOP-62, 48 h, read-out: Activity
A498 = assay: Growth inhibition of human A498 cells assessed as cell growth at 10^-5 M incubated for 48 hrs by sulforhodamine B assay relative to control; conditions: A498, 48 h, read-out: Activity
RXF 393 = assay: Growth inhibition of human RXF393 cells assessed as cell growth at 10^-5 M incubated for 48 hrs by sulforhodamine B assay relative to control; conditions: RXF 393, 48 h, read-out: Activity
PC-3 = assay: Growth inhibition of human PC3 cells assessed as cell growth at 10^-5 M incubated for 48 hrs by sulforhodamine B assay relative to control; conditions: PC-3, 48 h, read-out: Activity
Hs-578T [12] = assay: Growth inhibition of human Hs 578T cells assessed as cell growth at 10^-5 M incubated for 48 hrs by sulforhodamine B assay relative to control; conditions: read-out: Activity
SR [13] = assay: Growth inhibition of human SR cells assessed as cell growth at 10^-4 M incubated for 48 hrs by sulforhodamine B assay relative to control; conditions: read-out: Activity
NCI-H226 [14] = assay: Growth inhibition of human NCI-H226 cells assessed as cell growth at 10^-4 M incubated for 48 hrs by sulforhodamine B assay relative to control; conditions: NCI-H226, 48 h, read-out: Activity
NCI-H322M = assay: Growth inhibition of human NCI-H322M cells assessed as cell growth at 10^-4 M incubated for 48 hrs by sulforhodamine B assay relative to control; conditions: read-out: Activity
SF-268 = assay: Growth inhibition of human SF268 cells assessed as cell growth at 10^-4 M incubated for 48 hrs by sulforhodamine B assay relative to control; conditions: SF-268, 48 h, read-out: Activity
SNB-19 [15] = assay: Growth inhibition of human SNB19 cells assessed as cell growth at 10^-4 M incubated for 48 hrs by sulforhodamine B assay relative to control; conditions: SNB-19, 48 h, read-out: Activity
M14 = assay: Growth inhibition of human M14 cells assessed as cell growth at 10^-4 M incubated for 48 hrs by sulforhodamine B assay relative to control; conditions: M14, 48 h, read-out: Activity
UACC-257 = assay: Growth inhibition of human UACC257 cells assessed as cell growth at 10^-4 M incubated for 48 hrs by sulforhodamine B assay relative to control; conditions: UACC-257, 48 h, read-out: Activity

## CCCCOc1nc2ccccc2cc1C1CNC(=O)c2ccccc2N1 (stereo not given)
SF-295
  growth at 0.01 µM: 84%
Malme-3M
  growth at 0.01 µM: 88%
SK-MEL-2
  growth at 0.01 µM: 96%
CAKI-1 [1]
  growth at 0.01 µM: 83%
DU-145 [2]
  growth at 0.01 µM: 101%
MCF7
  growth at 0.01 µM: 88%
MDA-MB-468
  growth at 0.01 µM: 78%
SR [3]
  growth at 0.1 µM: 64%
HOP-62 [4]
  growth at 0.1 µM: 98%
KM12
  growth at 0.1 µM: 98%
ACHN
  growth at 0.1 µM: 98%
CAKI-1 [5]
  growth at 0.1 µM: 86%
TK-10
  growth at 0.1 µM: 83%
DU-145 [6]
  growth at 0.1 µM: 101%
SR [7]
  growth at 1 µM: 55%
NCI-H226 [8]
  growth at 1 µM: 92%
NCI-H23
  growth at 1 µM: 91%
SNB-19 [9]
  growth at 1 µM: 95%
LOX IMVI
  growth at 1 µM: 80%
SK-MEL-28
  growth at 1 µM: 71%
Hs-578T [10]
  growth at 1 µM: 73%
HL-60(TB)
  growth at 10 µM: -28%
MOLT-4
  growth at 10 µM: 6%
HOP-62 [11]
  growth at 10 µM: 19%
A498
  growth at 10 µM: -21%
RXF 393
  growth at 10 µM: 5%
PC-3
  growth at 10 µM: 9%
Hs-578T [12]
  growth at 10 µM: 28%
SR [13]
  growth at 100 µM: -25%
NCI-H226 [14]
  growth at 100 µM: -32%
NCI-H322M
  growth at 100 µM: -16%
SF-268
  growth at 100 µM: 1%
SNB-19 [15]
  growth at 100 µM: -5%
M14
  growth at 100 µM: -52%
UACC-257
  growth at 100 µM: 6%
